Experiments:
Assay type in all cases: cell-based, human
[1] = system: BTN3A; experiment: Inhibitor dose response, surface BTN3A by flow cytometry in WT Daudi-Cas9 cells; settings: 72 hours, complete RPMI, vs vehicle
Method: Daudi-Cas9 cells (180 μL) were seeded at 275,000 cells/mL in cRPMI in round-bottom 96-well plates. Twenty μL of zoledronate, rotenone (MedChemExpress), oligomycin A (Neta Scientific), FCCP (MedChemExpress), antimycin A (Neta Scientific), AICAR (Sigma), 2-DG (Sigma), Compound 991 (Selleck Chemical), A-769662 (Sigma), ethanol (vehicle), or DMSO (vehicle, at dilutions matching the treatment) at various concentrations were added to the cells. Plate edge wells were filled with 200 μL of sterile water or PBS. The cells were grown at 37° C. for 72 hours, and stained with APC-conjugated anti-human CD277 antibody (clone BT3.1, 1:50 dilution)(Miltenyi Biotec) and 7-AAD (1:150 dilution) (Tonbo). The cells were then analyzed on the Attune NxT flow cytometer.

[2] = system: Daudi-Cas9 cells; experiment: γδ TCR tetramer staining (G115 Vγ9Vδ2 TCR clone) of Daudi-Cas9 cells; settings: WT Daudi-Cas9 cells, 0.5 mM, 72 hours
Excerpt: The G115 Vγ9Vδ2 TCR clone tetramer was generated using the following methods. The G115 γ-[…] chain sequence (Davodeau et al. J. Immunol. 151, 1214-1223 (1993)) was cloned into the pAcGP67A vector with a C-terminal acidic zipper, and the G115 δ-chain sequence (Davodeau et al. (1993)) as cloned into the pAcGP67A vector with a C-terminal AviTag followed by a basic zipper. Zippers stabilized the TCR complex. The TCR was expressed in the High Five baculovirus insect-cell expression system and purified via affinity chromatography over a Ni-NTA column. TCRs were biotinylated and biotinylation was confirmed using a TrapAvidin SDS-PAGE assay. The G115 TCR was then further purified using size-exclusion chromatography (Superdex200 100/300 GL column, GE Healthcare) and purity was confirmed via SDS-PAGE. Tetramers were generated by incubating biotinylated TCR with streptavidin conjugated to the PE fluorophore.
Daudi-Cas9 KO cells were analyzed 13 and 14 days post-lentiviral transduction. WT Daudi-Cas9 cells were analyzed after being cultured for 72 hours with 0.5 mM AICAR, 80 μM Compound 991, DMSO (vehicle control at the concentration matching Compound 991), or nothing. […] Stained cells were analyzed on the Attune NxT flow cytometer.

[3] = system: BTN3A; experiment: Compound C dose response in combination with AICAR or OXPHOS inhibition, surface BTN3A; parameters: BTN3A levels vs vehicle control: dose or concentration left out as unconfirmed
Method: Daudi-Cas9 cells (170 μL) were seeded at 292,000 cells/mL in cRPMI in round-bottom 96-well plates. Ten μL of Compound C (Abcam) were added to all the cells at various concentrations. At indicated concentrations, 20 μL of rotenone, oligomycin A, FCCP, 2-DG, AICAR, or cRPMI (control) were added to the wells that received Compound C. Ten μL of DMSO at dilutions matching Compound C and 20 μL of cRPMI were added to the DMSO-only vehicle control wells. Plate edge wells were filled with 200 μL of sterile water or PBS. The cells were grown at 37° C. for 72 hours, stained with APC-conjugated anti-human CD277 antibody (clone BT3.1, 1:50 dilution) (Miltenyi Biotec) and 7-AAD (1:150 dilution) (Tonbo), and analyzed on the Attune NxT flow cytometer.

[4] = system: BTN3A; experiment: mTOR/ISR compound treatment, surface BTN3A by flow cytometry in AAVS1 and PPAT KO Daudi-Cas9 cells; settings: control KO (AAVS1) and purine biosynthesis KO (PPAT) Daudi-Cas9 cells, 10 μM, 72 hours
Method: Daudi-Cas9 AAVS1 and PPAT KO cells (190 μL) were seeded at 250,000 cells/mL in round-bottom 96-well plates. Cells received 10 μL of DMSO (vehicle) or one of the following compounds at a final concentration of 10 μM: sephin1 (APE×BIO), ISRIB (MedChemExpress), guanabenz acetate (MedChemExpress), Sal003 (MedChemExpress), salubrinal (MedChemExpress), raphin1 acetate (MedChemExpress), and rapamycin (MilliporeSigma). Edge wells were filled with 200 μL of sterile PBS or water. After being cultured for 72 hours, the cells were stained with APC-conjugated anti-human CD277 antibody (clone BT3.1, 1:50 dilution) (Miltenyi Biotec) and 7-AAD (1:150 dilution) (Tonbo), and analyzed on the Attune NxT flow cytometer.

[5] = system: Daudi-Cas9 cells; experiment: Cancer-T cell co-culture genome-wide CRISPR knockout screen (Vγ9Vδ2 T cell killing); settings: for score: MAGeCK sgRNA test, co-culture screen; for LFC: log-fold change of sgRNA, surviving cells after co-culture vs baseline; for LFC / treat mean: MAGeCK; for treat mean: sgRNA abundance in surviving Daudi-Cas9 KO cells after 24 hours Vγ9Vδ2 T cell co-culture with zoledronate; for high_in_treatment: sgRNA enriched (TRUE) or depleted (FALSE) after T cell co-culture

| Molecule | score [5] | LFC [5] | treat mean [5] | high_in_treatment [5] | other results |
| --- | --- | --- | --- | --- | --- |
| O=CC[C@@H](O)[C@H](O)[C@H](O)CO [2-DG, 2-deoxy-D-glucose] | – | – | – | – | surface BTN3A (MFI) [1]: upregulated BTN3A levels |
| N#Cc1c(O)c2c(-c3ccc(-c4ccccc4O)cc3)csc2[nH]c1=O [A-769662] | – | – | – | – | surface BTN3A (MFI) [1]: Upregulation of surface BTN3A |
| NC(=O)c1ncn([C@@H]2O[C@H](CO)[C@@H](O)[C@H]2O)c1N [AICAR, N^1-(β-D-Ribofuranosyl)-5-aminoimidazole-4-carboxamide] | – | – | – | – | surface BTN3A (MFI) [1]: dramatic increase in surface BTN3A; increase in G115 Vγ9Vδ2 TCR tetramer staining [2]: 40-80% |
| c1cc(-c2cnn3cc(-c4ccc(OCCN5CCCCC5)cc4)cnc23)ccn1 [Compound C] | – | – | – | – | BTN3A upregulation caused by OXPHOS inhibition (rotenone, oligomycin, FCCP) or glycolysis inhibition (2-DG) ([3]; WT Daudi-Cas9 cells co-treated with Compound C, 72 hours): neutralized; AICAR-induced BTN3A upregulation ([3]; WT Daudi-Cas9 cells co-treated with increasing amounts of Compound C and AICAR, 72 hours): decreased the AICAR-induced BTN3A upregulation; BTN3A levels vs vehicle control ([3]; co-treated with AICAR, Compound C): falling well below those observed in the vehicle control |
| N#CC(C#N)=NNc1ccc(OC(F)(F)F)cc1 [FCCP, carbonyl cyanide-4 (trifluoromethoxy) phenylhydrazone] | – | – | – | – | surface BTN3A (MFI) [1]: highest BTN3A upregulation |
| O=C(COc1ccc(Cl)cc1)NC1CCC(NC(=O)COc2ccc(Cl)cc2)CC1 (stereo not shown) [ISRIB] | – | – | – | – | BTN3A surface expression [4]: negligible effects |
| O=C(/C=C/c1ccccc1)NC(NC(=S)Nc1ccc(Cl)cc1)C(Cl)(Cl)Cl (stereo not shown) [Sal003] | – | – | – | – | BTN3A surface expression [4]: downregulation |
| O=P(O)(O)C(O)(Cn1ccnc1)P(=O)(O)O [ZOL, zoledronate] | – | – | – | – | surface BTN3A (MFI) [1]: substantial and dose-dependent increase in BTN3A |
| N=C(N)N/N=C/c1c(Cl)cccc1Cl [guanabenz] | – | – | – | – | BTN3A surface expression [4]: negligible effects |
| CC[C@H]1/C=C/C=C/C[C@@H](C)[C@H](O)[C@@](C)(O)C(=O)[C@@H](C)[C@H](O)[C@@H](C)C(=O)[C@@H](C)[C@H](O)[C@@H](C)/C=C/C(=O)O[C@@H]2[C@H](C)[C@H](CC1)O[C@]1(CC[C@H](C)[C@H](C[C@@H](C)O)O1)[C@H]2C [oligomycin A] | – | – | – | – | surface BTN3A (MFI) [1]: highest BTN3A upregulation |
| NC(N)=N/N=C/c1cccc(Cl)c1Cl [raphin1] | – | – | – | – | BTN3A surface expression [4]: negligible effects |
| C=C(C)[C@H]1Cc2c(ccc3c2O[C@@H]2COc4cc(OC)c(OC)cc4[C@@H]2C3=O)O1 [rotenone] | – | – | – | – | surface BTN3A (MFI) [1]: BTN3A upregulation at two lower doses and a downregulation at one higher dose |
| O=C(/C=C/c1ccccc1)NC(NC(=S)Nc1cccc2cccnc12)C(Cl)(Cl)Cl (stereo not shown) [salubrinal] | – | – | – | – | BTN3A surface expression [4]: negligible effects |
| SPIB_CTGGGGCTACTGACGCGCG: library sgRNA targeting SPIB (as printed in the source, key not given here) | 12.692 | 1.6241 | 7610.7 | TRUE | – |
| SPIB_GAGGTCTCGGACAGCGAGT: library sgRNA targeting SPIB (as printed in the source, key not given here) | 7.1579 | 1.2994 | 3907.1 | TRUE | – |
| SPIB_GCTAGCGAAGTTCTCCGTG: library sgRNA targeting SPIB (as printed in the source, key not given here) | 8.8597 | 1.4916 | 4447.4 | TRUE | – |
| SPIB_GGGGGGTTCGTAGCAGAGC: library sgRNA targeting SPIB (as printed in the source, key not given here) | 6.2733 | 1.2452 | 3280.6 | TRUE | – |
| SPIB_GGGTACGGGGCATATGCCG: library sgRNA targeting SPIB (as printed in the source, key not given here) | 10.693 | 1.7824 | 4360 | TRUE | – |
| SUGT1_TTTGACTGATGAGTCCACT: library sgRNA targeting SUGT1 (listed as DNA, chemistry not fully specified) | 7.7611 | 1.5136 | 3294.2 | TRUE | – |
| TRMT61A_CACGTCACCTTGGAGCCGA: library sgRNA targeting TRMT61A (listed as DNA, chemistry not fully specified) | 6.3388 | −3.6911 | 242.28 | FALSE | – |
| TSC2_AGCATCTCATACACACGCG: library sgRNA targeting TSC2 (listed as DNA, chemistry not fully specified) | 6.0284 | −2.8218 | 463.96 | FALSE | – |
| TTC7A_CAGTACGTCATGCTCTCGG: library sgRNA targeting TTC7A (listed as DNA, chemistry not fully specified) | 6.0307 | −5.2629 | 63.697 | FALSE | – |
| UGGT2_TTCGCAATCTTGGGATCAA: library sgRNA targeting UGGT2 (listed as DNA, chemistry not fully specified) | 8.3503 | 1.6772 | 3035.8 | TRUE | – |
| WDR59_TATCCGCACATCGCCGTCA: library sgRNA targeting WDR59 (as printed in the source, key not given here) | 7.8204 | −3.8469 | 327.58 | FALSE | – |
| WDR61_ATTCCATCTATGGCTCCAC: library sgRNA targeting WDR61 (as printed in the source, key not given here) | 6.193 | −9.1046 | 2.9058 | FALSE | – |
| XPNPEP1_GGACTTGTAGGGATGCACC: library sgRNA targeting XPNPEP1 (as printed in the source, key not given here) | 6.7154 | 1.4173 | 2841.3 | TRUE | – |
| ZC3H12A_CCGTGACCTCCAAGGCGAG: library sgRNA targeting ZC3H12A (listed as DNA, chemistry not fully specified) | 6.507 | 1.2168 | 3712.6 | TRUE | – |
| antimycin A | – | – | – | – | surface BTN3A (MFI) [1]: highest BTN3A upregulation |

Reference: US20240115705A1, “Regulation of Butyrophilin subfamily 3 member A1 (BTN3A1, CD277)” (The J. Gladstone Institutes, a testamentary trust …, priority 2021, published 2024)
